Assay results as given in US8877757B2, “Pyrazine derivatives and use as PI3K inhibitors” (Merck Serono SA, priority 2005, dated 2014).

What was measured:
[1] = biological target: Human recombinant GST-PI3δ (Homo sapiens (Human), UniProt O00329); experiment: PI3K induced-lipid phosphorylation scintillation proximity assay (neomycin-coated SPA beads); assay type: biochemical
From the text: The efficacy of compounds of the invention in inhibiting the PI3K induced-lipid phosphorylation may be tested in the following binding assay.
The assay combines the scintillation proximity assay technology (SPA, Amersham) with the capacity of neomycin (a polycationic antibiotic) to bind phospholipids with high affinity and specificity. The Scintillation Proximity Assay is based on the properties of weakly emitting isotopes (such as ^3H, ^125I, ^33P). Coating SPA beads with neomycin allows the detection of phosphorylated lipid substrates after incubation with recombinant PI3K and radioactive ATP in the same well, by capturing the radioactive phospholipids to the SPA beads through their specific binding to neomycin.
To a 96 wells MTP containing 10 μl of the test compound of Formula (I) (solubilized in 10% DMSO; to yield a concentration of 100, 25, 5.0, 1.25, 0.312, 0.078, 0.0195, 0.00488, 0.00122 and 0.0003 μM of the test compound), the following assay components are added: 1) 10 μl of lipid micelles 2) 20 μl of Kinase buffer ([^33P]γ-ATP 162 μM/300 nCi, MgCl2 2.5 mM, DTT 2.5 mM, Na3VO4 25 μM in Hepes 40 mM, pH 7.4) and 3) 10 μl (100 ng) of Human recombinant GST-PI3δ (in Hepes 40 mM, pH 7.4, ethylenglycol 4%). After incubation at room temperature for 120 minutes, with gentle agitation, the reaction is stopped by addition of 200 μl of a solution containing 250 μg of neomycin-coated PVT SPA beads, ATP 60 mM and EDTA 6.2 mM in PBS. The assay is further incubated at room temperature for 60 minutes with gentle agitation to allow binding of phospholipids to neomycin-SPA beads. After precipitation of the neomycin-coated PVT SPA beads for 5 minutes at 1500×g, radioactive PtdIns(3)P is quantified by scintillation counting in a Wallac MicroBeta™ plate counter.
The values indicated in Table I below refer to the IC50 (μM) with respect to PI3K, i.e. the amount necessary to achieve 50% inhibition of said target. Said values show a considerable inhibitory potency of pyrazine compounds with regard to PI3K.

[2] = tested on: Akt phosphorylation in B cells; experiment: IgM-induced Akt phosphorylation in B cell (human PBMC, flow cytometry); assay type: cell-based; details: 5 min, CD19+ IgM+ B cells in human PBMC, anti IgM for 5 minutes, read-out: IC50, inhibition of IgM-induced Akt Phosphorylation
Protocol: Human PBMC were prepared from a Buffy coat (Geneve Hospital) after a Ficoll gradient (FICOLL-PAQUE Plus PHARMACIA ref: 17-1440-03).
Cell concentration was adjusted to 10^6 cells per ml in RPMI (GIBCO Ref: 72400-21) without serum. Before stimulation, 90 μl of PBMC suspension was incubated with 10 μl of diluted compound in a 96 well round bottom plate for 20 minutes at 37° C.
For B cell activation, 30 μl of Fab′2 Goat anti IgM (Jackson Immuno-research) at 10 μg/ml was added to each well. After 5 minutes, cell activation was stopped with 4% paraformaldehyde (10 minutes at room temperature).
Fixed PBMC were then treated for 20 minutes with 0.15% Triton, washed twice with PBS and permeabilized with 50% methanol for 15 minutes.
PBMC were washed twice in PBS, resuspended in: PBS-4% FCS and incubated with anti P-Akt (1/100 dilution) for one hour at room temperature.
After one wash, PBMC were further stained for 30 minutes with a mixture of anti-CD19-PE (BD Biosciences), anti-IgM-FITC (BD Biosciences) and goat anti rabbit IgG-Alexa 647 (Molecular probe).
After washing, PBMC (Peripheral Blood Mononuclear Cells) were analysed on a FACSCalibur instrument (BD Biosciences) equipped with a 633 helium-neon laser, or stored at 4° C. for further analysis. 510^3 B cells events were gathered per sample in the CD19 positive region.
For the analysis, a threshold was applied on P-Akt histogram of CD 19+ IgM+ lymphocytes cells from the non-stimulated samples and the percentage of cells above this threshold was determined for each sample.

[3] = tested on: PKB/Akt phosphorylation in mast cells; experiment: SCF-induced PKB/Akt phosphorylation in mast cells; assay type: cell-based, mice; details: Mast cell, 0.25 h; mast cells derived from mouse bone marrow, 20 ng/mL SCF for 15 minutes; read-out: IC50, inhibition of SCF-induced Akt Phosphorylation
Protocol: Protocol: Primary bone marrow cells were isolated from 4-8 weeks old wild type mice and derived to mast cells by incubation with medium containing 20 ng/mL of stem cell factor (SCF) (PeproTech, Switzerland) and 20 ng/mL of IL-3 (PeproTech, Switzerland) for at least 4 weeks. Confirmation of the expression of mast cell specific surface markers was done by FACS analysis using antibodies against c-kit (cKit-PE mouse antibody; Pharmingen). Cells were maintained in culture in the presence of SCF and IL-3. To induce PKB/Akt phosphorylation, mast cells were resuspended at 2.5×10^6 cells/mL and starved in medium containing no SCF or IL-3 for 24 h. After preincubation with compounds or 1% DMSO for 20 minutes, cells were activated with 20 ng/mL of SCF for 15 minutes at 37° C., fixed in 1.5% paraformaldehyde for 20 minutes and permeabilised with 0.2% Triton X-100 for 10 minutes, at room temperature. PKB/Akt phosphorylation was visualized using phospho-Ser-473 specific Akt antibodies (Cell Signaling) and standard FACS protocols.

[4] = tested on: Female Balb/c mice; experiment: Passive cutaneous anaphylaxis (PCA); assay type: in vivo; details: 30 mg/kg oral route, 2 hours before challenge
Protocol: Female Balb/c mice (Elevage Janvier) (8 week old) were intradermally injected by anti-DNP IgE (50 ng in 20 μl, id, 2 sites of injection) on their shaved backs. Twenty four hours later they received an intravenous injection of DNP-human serum albumin (50 μg/mouse) and Evans blue (25 mg/kg) by retroorbital injection. Thirty minutes later, the animals were sacrificed. The skin of the back was removed. The extravasated dye (punch diameter: 5 mm) was extracted from 2 punches by 0.4 ml of formamide and was quantified by fluorescence (E1: 585 nm, E2: 660 nm).
Inhibitors are administered by oral route at the dose of 30 mg/kg 2 hours before the challenge of DNP-human serum albumin and Evans blue.

[5] = tested on: Class I PI3-kinases; details: Fruman et al., 1998; read-out: IC50 against each of the various Class I PI3-kinases; cited from earlier work

Chain of Human recombinant GST-PI3δ (O00329 whole entry): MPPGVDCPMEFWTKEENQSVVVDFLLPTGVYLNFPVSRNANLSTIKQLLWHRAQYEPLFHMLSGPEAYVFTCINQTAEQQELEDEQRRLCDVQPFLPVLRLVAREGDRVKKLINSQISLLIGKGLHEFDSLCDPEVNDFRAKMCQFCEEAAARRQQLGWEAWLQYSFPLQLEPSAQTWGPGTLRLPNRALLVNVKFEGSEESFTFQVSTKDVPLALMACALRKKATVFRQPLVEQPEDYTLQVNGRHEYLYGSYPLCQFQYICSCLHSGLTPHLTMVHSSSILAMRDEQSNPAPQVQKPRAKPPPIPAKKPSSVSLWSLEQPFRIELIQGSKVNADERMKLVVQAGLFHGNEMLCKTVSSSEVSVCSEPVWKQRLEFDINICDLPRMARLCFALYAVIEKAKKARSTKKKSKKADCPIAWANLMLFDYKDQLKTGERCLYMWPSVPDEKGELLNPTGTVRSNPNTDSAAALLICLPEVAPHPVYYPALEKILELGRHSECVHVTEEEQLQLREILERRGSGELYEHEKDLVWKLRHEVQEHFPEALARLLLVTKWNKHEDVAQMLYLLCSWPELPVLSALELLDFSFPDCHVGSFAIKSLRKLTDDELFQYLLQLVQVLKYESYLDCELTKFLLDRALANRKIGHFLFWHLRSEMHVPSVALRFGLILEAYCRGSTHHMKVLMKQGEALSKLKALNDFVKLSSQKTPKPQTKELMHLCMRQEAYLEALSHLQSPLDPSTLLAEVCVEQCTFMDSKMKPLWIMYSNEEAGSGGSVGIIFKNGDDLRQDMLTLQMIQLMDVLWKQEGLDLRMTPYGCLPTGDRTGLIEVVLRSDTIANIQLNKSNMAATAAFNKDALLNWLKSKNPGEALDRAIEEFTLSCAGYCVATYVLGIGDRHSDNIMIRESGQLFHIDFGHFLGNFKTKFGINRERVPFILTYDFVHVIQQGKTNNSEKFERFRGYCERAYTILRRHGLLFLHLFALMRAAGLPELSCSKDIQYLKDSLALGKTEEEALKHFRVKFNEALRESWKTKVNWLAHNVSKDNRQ

Row | SMILES | IC50 [1] [nM] | IC50 [2] [nM] | IC50 [3] [nM] | inhibition of vascular permeability [4] [%] | IC50 [5] [nM]
1 | COc1ccc(OC)c(Nc2nc3ccccc3nc2NS(=O)(=O)c2cn(C)cn2)c1 [Example 13, N-{3-[(2,5-dimethoxyphenyl)amino]quinoxalin-2-yl}-1-methyl-1H-imidazole-4-sulfonamide] | 80 | 30 |  |  | 
2 | COc1ccc(OC)c(Nc2nc3ccccc3nc2NS(=O)(=O)c2ccc3c(c2)sc(=O)n3C)c1 [Example 29, N-{3-[(2,5-dimethoxyphenyl)amino]quinoxalin-2-yl}-3-methyl-2-oxo-2,3-dihydro-1,3-benzothiazole-6-sulfonamide] | 240 |  |  |  | 
3 | COc1ccc(OC)c(Nc2nc3ncccc3nc2NS(=O)(=O)c2ccccc2)c1 [Example 86, N-{3-[(2,5-dimethoxyphenyl)amino]pyrido[2,3-b]pyrazin-2-yl}benzene sulfonamide] | 73 |  |  |  | 
4 | COC[C@H]1OC(=O)c2coc3c2[C@@]1(C)C1=C(C3=O)[C@@H]2CCC(=O)[C@@]2(C)C[C@H]1OC(C)=O [Wortmannin] |  |  |  |  | 1 to 10

Continued, in another order:

Row | IC50 [1] [nM] | IC50 [2] [nM] | IC50 [3] [nM] | SMILES | inhibition of vascular permeability [4] [%] | IC50 [5] [nM]
5 | 56 | 21 | 1190 | COc1ccc(OC)c(Nc2nc3ccccc3nc2NS(=O)(=O)c2cccnc2)c1 [Example 65, N-{3-[(2,5-dimethoxyphenyl)amino]quinoxalin-2-yl}pyridine-3-sulfonamide] | 84 | 
6 | 27 | 16 | 180 | COc1cc(Nc2nc3ccccc3nc2NS(=O)(=O)c2ccc(CN(C)C)cc2)cc(OC)c1 [Example 138, N-{3-[(3,5-dimethoxyphenyl)amino]quinoxalin-2-yl}-4-[(dimethylamino)methyl]benzenesulfonamide] |  | 
7 | 30 |  |  | COc1cc(Nc2nc3ccccc3nc2NS(=O)(=O)c2cccc(C(=O)NCCCN(C)C)c2)cc(OC)c1 [Example 144, 3-[({3-[(3,5-dimethoxyphenyl)amino]quinoxalin-2-yl}amino)sulfonyl]-N-[3-(dimethylamino)propyl]benzamide] |  | 
